Literature values in patent US7109337B2, “Pyrimidine derivatives for the treatment of abnormal cell growth” (Pfizer Inc, priority 2002, dated 2006).

Experiments:
[1] = system: transplanted human mammary carcinoma that expresses epidermal growth factor receptor tyrosine kinase (EGFR); conditions: athymic nude mice
[2] = system: another carcinoma that does not express the EGF receptor

Structure (SMILES): O=CN/C=C/c1cc(O)ccc1O [erbstatin]
- growth of transplanted human mammary carcinoma [1]: selectively attenuates the growth
- growth of another carcinoma [2]: without effect on the growth
